Experimental data: patent US7345065B2, “Methods and compositions for alleviating pain” (Allergan, Inc., priority 2002, dated 2008)

Tests used:
[1] = test system: α-2B heterozygous (−/+) and homozygous (−/−) knockout mice; assay: Sulprostone sensitized pain (allodynia), α-2B knockout mice; assay type: in vivo, mouse; details: intraperitoneal; heterozygous and homozygous α-2B knockout; clonidine 500 ug/kg, Compound 3 100 ug/kg
[2] = test system: Chung model rats; assay: Chung rat nerve ligation model, tactile allodynia reversal (Von Frey); assay type: in vivo
Experimental: The Chung rat nerve ligation model is a well accepted model of peripheral neuropathic pain. In the Chung model, partial ligation of left spinal nerves L-5 and L-6 produces a long-lasting hypersensitivity to light touch on the affected left foot. The hypersensitivity is similar to pain experienced by humans with the neuropathic condition of causalgia (Kim and Chung, Pain 50:355-363 (1992)).
Chung rat surgeries of about 20 minutes duration were performed essentially as follows. Male Sprague-Dawley rats weighing 100 to 120 grams were anesthetized with isofluorane. After shaving and preparing the surgical site with betadine, an incision was made from thoracic vertebra XIII down toward the sacrum, and muscle separated from spinal vertebra (left side) at the L4-S2 levels. The L6 vertebra were located, and the transverse process carefully removed with a small rongeur to visually identify the L4-L6 spinal nerves. L5 and L6 spinal nerves were isolated and tightly ligated with 6-0 silk thread; the wound was sutured after complete hemostasis was confirmed. A small amount of antibiotic ointment was applied to the incised area before transferring the animals to a plastic recovery cage under a regulated heat-temperature lamp. Animals were not treated with any topical or local anesthetics post-operatively.
Assessment of pain in Chung model rats was performed by applying a light tactile stimulus (Von Frey hair) to the affected surgical paw as follows. A 50% pain threshold was established by applying the Von Frey hair in an up-and-down manner to the plantar surface of the surgical paw with just enough force to bend them. A positive response was recorded if the paw was withdrawn sharply. The 50% paw withdrawal threshold was determined using the method of Dixon et al., Ann. Rev. Pharmacol. Toxicol. 20:441-462 (1980). The post-drug threshold was compared to the pre-drug threshold, and the precent reversal of tactile sensitivity calculated based on a normal threshold of 15.1 grams. The results were expressed as % allodynia reversal, reflecting the percentage reversal of pain threshold relative to a normal rat (100%).
Chung surgeries were performed, and pain assessed as described above. Drugs administered via osmotic minipump were delivered as follows. ALZET (Cupertino, Calif.) minipumps (Model #1007D) were implanted subcutaneously on the rats' back between the shoulder blades. Pumps were filled with test solution prior to surgery, which was performed with aseptic procedures and sterilized surgical instruments. After anesthetization with isoflorane and midline incision between the shoulder blades through the muscle, a subcutaneous pocket was exposed. The minipump was inserted into the exposed pocket, before stapling the wounds closed and allowing animals to recover under a warming light.
ALZET osmotic minipumps (model 1007D) hold a total volume of 100 μl and delivered drug at the set rat of 0.5 μl per hour the indicated time period. Drugs were administered at the indicated rate, typically 100 μg/hr/kg, dissolved in 50% DMSO, with the concentration of drug in the pump varied depending on animal weight. […]

[3] = Plasma concentration by LC-MS/MS during and after minipump dosing; assay type: in vivo, rat; details: 0.1 mg/kg/hour minipump for seven days
Experimental: To determine whether the persistent reversal of allodynia was due to the continued presence of drug in the animals, rats were treated for seven days using a subcutaneous osmotic minipump with 0.1 mg/kg/hour Compound 8. Plasma concentrations of Compound 8 were sampled on days 3, 6, 8, 10 and 14 following pump insertion and determined by liquid chromatography-mass spectrometry/mass spectrometry (LC-MS/MS).

[4] = test system: Bennett model rats; assay: Bennett partial sciatic nerve ligation model, cold allodynia; assay type: in vivo, rat; details: osmotic minipump 0.1 mg/hr/kg for four days; during treatment and more than three weeks following pump removal
Experimental: The α-2B/C selective agonist Compound 8 was tested in a second rat nerve injury model of neuropathic pain, the Bennett partial sciatic nerve ligation model. This rat model produces a peripheral mononeuropathy with disorders of pain sensation similar to those seen in man (Bennett and Xie, Pain 33:87-107 (1988)). In the Bennett model, nerve injury is created by loosely tying constrictive ligatures around the sciatic nerve, causing degeneration of nerve distal to the constriction. Allodynia and hyperalgesia are produced by the constriction injury in addition to spontaneous pain (Bennett and Xie, supra, 1988). In particular, cold allodynia, the sensation of pain from cold stimuli, is one manifestation of altered pain sensation: Bennett model animals frequently lift the paw of the surgical limb off the cold surface, in contrast to control animals.
Bennett surgeries of about 20 minute duration were performed as follows. […]
Chronic drug administration was achieved via an osmotic minipump, which was implanted subcutaneously on the back of the rat one week after the Bennett surgery as described above. […] To assess response to thermal stimuli, rats were placed under a clear plastic chamber (18 cm×29 cm×12.5 cm) on a chilled (0-4° C.) metal floor, which is not noxious to a normal animal, and the time that the surgical paw was raised off of the cold floor recorded over a 5 minute period. […]

[5] = test system: Sprague Dawley rats, normal and sensitized; assay: Rat model of irritable bowel syndrome (chronic visceral hypersensitivity), EMG response to colorectal distension; assay type: in vivo
From the text: A well-accepted model of chronic visceral hypersensitivity is described in Al-Chaer et al., Gastroenterology 119:1276-85 (2000). In brief, colons of neonatal male Sprague Dawley rats were sensitized by repeated inflation of a colonic balloon on postnatal days 8 to 21, with colonic balloons inflated to pressures ranging from 20-80 mm Hg. Three months later, the abdominal withdrawal reflex (AWR) response of the adult rats to graded colorectal distension (CRD) was quantified by electromyography (EMG) recording from the abdominal wall muscle. […] Each level of CRD was administered for 20 seconds every four minutes and repeated for a total of five times.
Groups of 8-10 normal and sensitized adult Sprague Dawley rats (approximately 3 months old) were implanted with subcutaneous minipumps to deliver either 50% DMSO or Compound 8 in 50% DMSO at a dose of 100 ug/kg/hr over a period of 7 days. The abdominal withdrawal reflex to a graded series of colorectal distensions (20, 40, 60, 80 mm Hg) was measured by abdominal EMG recording prior to pump implantation, on days 2 and 5 of the subcutaneous infusion, and 2 days, 1 week, 2 weeks, and 4 weeks after the pumps were removed.

[6] = molecular target: T1, rat α-2B (RNG gene) (Rattus norvegicus, UniProt P19328); assay: RSAT assay, α-2B receptor; assay type: cell-based
T1 construct: expressed in transfected cells; host or cells: NIH-3T3
T1 sequence (P19328 1-453): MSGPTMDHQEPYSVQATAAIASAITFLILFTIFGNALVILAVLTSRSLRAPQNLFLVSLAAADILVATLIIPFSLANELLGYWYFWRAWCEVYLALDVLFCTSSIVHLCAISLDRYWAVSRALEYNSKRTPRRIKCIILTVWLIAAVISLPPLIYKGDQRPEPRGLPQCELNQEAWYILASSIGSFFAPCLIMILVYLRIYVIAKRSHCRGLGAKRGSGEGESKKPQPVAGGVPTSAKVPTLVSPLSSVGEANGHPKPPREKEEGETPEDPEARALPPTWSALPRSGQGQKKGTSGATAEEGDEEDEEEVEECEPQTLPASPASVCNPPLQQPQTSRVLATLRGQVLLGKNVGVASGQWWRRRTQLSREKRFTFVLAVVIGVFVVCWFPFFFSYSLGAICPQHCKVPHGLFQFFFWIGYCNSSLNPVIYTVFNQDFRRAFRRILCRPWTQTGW
From the text: Agonist and antagonist activity, including selectivity and specificity, can be characterized using any of a variety of routine assays, including, without limitation, Receptor Selection and Amplification Technology (RSAT) assays (Messier et al., Pharmacol. Toxicol. 76:308-11 (1995); Conklin et al., Nature 363:274-6 (1993)); cyclic AMP assays (Shimizu et al., J. Neurochem. 16:1609-1619 (1969)); and cytosensor microphysiometry assays (Neve et al., J. Biol. Chem. 267:25748-25753 (1992)). Such assays generally are performed using cells that naturally express only a single α-adrenergic receptor subtype, or using transfected cells expressing a single recombinant α-adrenergic receptor subtype. The adrenergic receptor can be a human receptor or homolog thereof having a similar pharmacology. As disclosed herein, RSAT assays were performed using cells transiently transfected with human α-2A (c10 gene); rat α-2B (RNG gene); human α-2C (c4 gene); bovine α-1A; hamster α-1B; and rat α-1D.
The RSAT assay measures receptor-mediated loss of contact inhibition resulting in selective proliferation of receptor-containing cells in a mixed population of confluent cells. The increase in cell number is assessed with an appropriate detectable marker gene such as β-galactosidase, if desired, in a high throughput or ultra high throughput assay format. Receptors that activate the G protein, Gq, elicit the proliferative response. α-adrenergic receptors, which normally couple to Gi, activate the RSAT response when coexpressed with a hybrid Gq protein containing a Gi receptor recognition domain, designated Gq/i5.
As an example, an RSAT assay can be performed essentially as follows. NIH-3T3 cells are plated at a density of 2×10^6 cells in 15 cm dishes and maintained in Dulbecco's modified Eagle's medium supplemented with 10% calf serum. One day later, cells are cotransfected by calcium phosphate precipitation with mammalian expression plasmids encoding p-SV-β-galactosidase (5-10 μg), receptor (1-2 μg) and G protein (1-2 μg). Carrier DNA, for example 40 μg salmon sperm DNA, also can be included to increase transfection efficiency. Fresh media is added on the following day; one to two days later, cells are harvested and frozen in 50 assay aliquots. Transfected cells are thawed, and 100 μl of cells added to 100 μl aliquots of compound to be tested, with various concentrations assayed in triplicate, for example, in 96-well plates. Incubation continues for 72 to 96 hours at 37°. After washing with phosphate-buffered saline, β-galactosidase activity is determined by adding 200 μl of chromogenic substrate (3.5 mM O-nitrophenyl-β-D-galactopyranoside/0.5% NP-40 in phosphate buffered saline), incubating overnight at 30°, and measuring optical density at 420 nm. The absorbancy is a measure of enzyme activity, which depends on cell number and reflects receptor-mediated cell proliferation. The EC50 and maximal effect (efficacy) of each drug at each receptor is determined.

[7] = molecular target: T2, α-2A (Homo sapiens, UniProt P08913); assay: Ki at α-2A; assay type: binding
T2 sequence (P08913 1-465): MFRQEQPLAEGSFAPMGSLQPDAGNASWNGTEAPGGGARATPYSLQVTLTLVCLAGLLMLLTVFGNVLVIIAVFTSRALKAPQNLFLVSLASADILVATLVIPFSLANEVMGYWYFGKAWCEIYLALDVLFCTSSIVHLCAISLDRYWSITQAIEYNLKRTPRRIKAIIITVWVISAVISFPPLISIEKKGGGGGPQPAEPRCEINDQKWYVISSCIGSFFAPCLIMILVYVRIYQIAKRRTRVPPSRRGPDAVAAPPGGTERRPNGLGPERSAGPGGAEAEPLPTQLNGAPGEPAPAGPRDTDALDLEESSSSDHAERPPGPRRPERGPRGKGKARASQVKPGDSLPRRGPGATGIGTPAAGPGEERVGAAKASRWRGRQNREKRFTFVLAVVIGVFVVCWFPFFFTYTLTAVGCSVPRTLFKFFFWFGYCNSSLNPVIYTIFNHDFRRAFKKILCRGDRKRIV

[8] = subcutaneous osmotic minipump 0.1 mg/kg/hour, seven days

Compound: OCCNC(=S)NCc1cccc(Cl)c1F [Compound 8]
- analgesic effect in α-2B knockout mice [1]: failed to show analgesic activity
- allodynia during follow-up testing ([2]; after oral 0.3 mg/kg three times a day for three days): allodynia did not increase during a more than three week period of follow-up testing
- allodynia on the morning of day 4 ([2]; oral 0.3 mg/kg three times a day for three days): allodynia was dramatically reduced
- allodynia prior to the first dose of the morning, days 2 and 3 ([2]; oral 0.3 mg/kg three times a day for three days, about 14 hours after the last dose): complete tactile allodynia
- reversal of allodynia ([2]; oral gavage, three doses of 0.3 mg/kg per day for three consecutive days): 70-80%
- allodynia alleviated during the period of drug treatment [2, 8]: 90-100%
- persistence of analgesic effects after treatment [2, 8]: continued for over a month after treatment was concluded
- plasma drug level, day 10 ([3]; day 10 following pump insertion): minimal drug levels were detected
- plasma drug level, day 14 ([3]; day 14 following pump insertion): no drug remained in the plasma
- cold allodynia [4]: completely alleviated
- EMG response, non-sensitized control rats ([5]; 100 ug/kg/hr subcutaneous minipump, 7 days): did not change significantly from pre-treatment levels
- pain (EMG intensity) in sensitized rats after treatment ([5]; 100 ug/kg/hr subcutaneous minipump, 7 days, CRD 20-80 mm Hg): 0 to 1.5
- increased EMG response in sensitized rats ([5]; 100 ug/kg/hr subcutaneous minipump, 7 days, during and following treatment): completely alleviated
- return of colorectal allodynia and hyperalgesia ([5]; 4 weeks following cessation of drug treatment): did not return during the time period tested

Compound: c1nc(CC2CCc3sccc3C2)c[nH]1 (stereo not shown) [Compound 13]
- efficacy at α-2B relative to brimonidine [6]: about 40%
- Ki [7]: ~0.08 nM
